Structures can show the parent of a compound that is named as a salt.
melting point [°C] | SMILES
127 to 128 | O=C([C@@H]1C[C@H]1c1ccccc1)N1CC[C@H](CNc2ncccn2)[C@H](F)C1 (as salt: hydrochloride) [Example 5, (3S,4R)-N-[(3-cis-fluoro-1-{[(1R,2R)-2-phenylcyclopropyl]carbonyl}piperidin-4-yl)methyl]pyrimidin-2-amine]
115 to 117 | Cc1ccc(COC(=O)N2CC[C@@H](CNc3nncs3)[C@@H](F)C2)cc1 (stereo in doubt) (as salt: hydrochloride) [Example 6, (−)-cis-4-methylbenzyl 3-fluoro-4-[(1,3,4-thiadiazol-2-ylamino)methyl]piperidine-1-carboxylate]
93 to 95 | Cc1ccc(COC(=O)N2CC[C@@H](CNc3nncs3)[C@H](F)C2)cc1 [Example 7, (+)-trans-4-methylbenzyl 3-fluoro-4-[(1,3,4-thiadiazol-2-ylamino)methyl]piperidine-1-carboxylate]
